Reference: patent US4263283A, “Method for prophylaxis and/or treatment of sickle cell disease” (Ferring Pharmaceuticals, Inc., priority 1980, dated 1981)

Tests used:
[1] = tested on: sickle cell disease
Excerpt: The patient was a person with sickle cell disease characterized by diffuse pain involving the spine, long bones and abdomen; an elevated serum bilirubin and leukocytosis (the former indicating at least temporary liver damage due to the disease); a reticulocyte count of about 15% (indicating formation of new red blood cells) and a hematocrit of 24-30% (below the normal level of 43-45%). Prior treatment included i.v. hydration, transfusion with packed red blood cells and i.v. narcotics to manage the pain.
Because of the increasing frequency and severity of sickling crises, they were treated with desmopressin to induce a state of chronic hypo-osmolalityof body fluids by combination with increasd oral fluid administration.

[2] = in vivo; cited from earlier work
[3] = desmopressin 40 mcg intranasally every 6 hours + hydrochlorothiazide 100 mg daily, fluid intake 4.3±0.15 l/day

Row | Compound | effect on attainment of hyponatremic state ([1]; 100 mg daily, added to desmopressin and fluid intake of 4-5 l. daily) | pain and jaundice after regimen re-instated ([1]; after crisis signs on withdrawal) | period free of any signs or symptoms of sickle cell crisis ([1]; after re-instatement of the regimen) [months] | serum Na after regimen re-instated ([1]; decreased from 142 mM after re-instatement of desmopressin regimen) [mM] | serum Na level at plateau [1, 3] [mM] | urine osmolality at plateau [1, 3] [m Osm/kg] | time free of any signs of crisis ([1]; first period on the regimen) [days] | untoward side-effects of the induced hyponatremia (nausea, cramps, disturbances in central nervous function) ([1]; human, in vivo) | vascular or non-vascular smooth muscle side effects [2]
1 | NS(=O)(=O)c1cc2c(cc1Cl)NCNS2(=O)=O [Hydrochlorothiazide] | facilitated the attainment of a hyponatremic state | – | – | – | – | – | – | – | –
2 | NC(=O)CC[C@@H]1NC(=O)[C@H](Cc2ccccc2)NC(=O)[C@H](Cc2ccc(O)cc2)NC(=O)CCSSC[C@@H](C(=O)N2CCC[C@H]2C(=O)N[C@H](CCCN=C(N)N)C(=O)NCC(N)=O)NC(=O)[C@H](CC(N)=O)NC1=O [desmopressin, 1-deamino-8-D-arginine vasopressin] | – | pain and jaundice abated | 6 | 127 | 125 | 344±13 | 54 | has not been associated with untoward side-effects | devoid of vascular or non-vascular smooth muscle side effects
